Measurements published in US20170101431A1, “NUCLEOSIDE DERIVATIVES FOR THE TREATMENT OF CANCER” (IDENIX PHARMACEUTICALS LLC, priority 2014, published 2017).

Legend:
Assay type in all cases: cell-based
CCRF-CEM = assay: In vitro inhibition, CellTiter-Glo (CTG) assay, CCRF-CEM; conditions: 72 hr exposure
Description: (§1) Cells were grown in RPMI-1640 supplemented with L-Glutamine and 10% FBS of the following cancer cell lines:
(§2) CCRF-CEM; CCRF-CEM-cytarabine resistant; HL-60;
(§3) 18, 96 well plates of each cell line were seeded with the optimized number of cells per well in a total volume of 50 μL per well. The plates were left overnight. Plate wells were seeded with 100 μL media for media control. The following day, cells were exposed to test compounds as described below. At the same time as drug exposure, a CTG assay was conducted on the 18th plate for the 0 hr count.
(§4) The compounds were added to cells and medium already on the plate to give desired final concentrations. 50 μL media were added to cell control wells, and 50 μL of mix added to vehicle control wells. 10 μM Doxorubicin was added to appropriate wells as control. Cells exposed to test compound were incubated at 37° C. for 72 hr followed by a CTG assay.
(§5) At the end of the 72 hr exposure period, plates were removed for a CellTiter-Glo (CTG) assay from a 37° C., 5% CO2 incubator and placed on the bench at room temperature for 30 mins. 100 μL of CellTiter-Glo reagent was added and mixed for 2 mins, followed by a further 10 min incubation at room temperature. Luminescence was recorded using Synergy 4.0.

[1] = tested on: CCRF-CEM-cytarabine resistant; assay: In vitro inhibition, CellTiter-Glo (CTG) assay, CCRF-CEM-cytarabine resistant; conditions: 72 hr exposure
Description: as §1, §2, §3, §4, §5

HL-60 = assay: In vitro inhibition, CellTiter-Glo (CTG) assay, HL-60; conditions: HL-60, 72 hr exposure
Description: as §1, §2, §3, §4, §5

Compound | IC50 (CCRF-CEM) [µM] | IC50 [1] [µM] | IC50 (HL-60) [µM] | IC50 ([1]; 72 h) [µM] | IC50 (HL-60; Homo sapiens, HL-60, 72 h) [µM] | IC50 (CCRF-CEM; Homo sapiens) [µM] | IC50 (HL-60; Homo sapiens) [µM]
C[C@H](NP(=O)(OCc1ccc([N+](=O)[O-])s1)OC[C@H]1O[C@@H](n2ccc(N)nc2=O)[C@@H](O)[C@@H]1O)C(=O)OCc1ccccc1 (single isomer, unassigned) [24f (diastereoisomer 2)] | < 1 | 10 to 25 | 10 to 25 | – | – | – | –
Nc1ccn([C@@H]2O[C@H](COP(=O)(NCc3ccccc3)OCc3ccc([N+](=O)[O-])o3)[C@@H](O)[C@@H]2O)c(=O)n1 (single isomer, unassigned) [25 (diastereoisomer 1)] | – | – | – | 10 to 25 | 1 to 10 | < 1 | –
Nc1ccn([C@@H]2O[C@H](COP(=O)(NCc3ccccc3)OCc3ccc([N+](=O)[O-])o3)[C@@H](O)[C@@H]2O)c(=O)n1 (single isomer, unassigned) [25 (diastereoisomer 2)] | < 1 | 10 to 25 | 1 to 10 | – | – | – | –
CCOC(=O)[C@H](C)NP1(=O)OC[C@H]2O[C@@H](n3cnc4c(N)nc(Cl)nc43)[C@@H](F)[C@@H]2O1 (stereo partly drawn) [Compound 10, Ethyl (2S)-2-[[(4aR6R,7S,7aR)-6-(6-amino-2-chloro-purin-9-yl)-7-fluoro-2-oxo-4a,6,7,7a-tetrahydro-4H-furo[3.2-d][1,3,2]dioxaphosphinin-2-yl]amino]propanoate] | – | 25 to 100 | – | – | 1 to 10 | < 1 | –
CCOC(=O)[C@H](C)NP1(=O)OC[C@H]2O[C@@H](n3cnc4c(N)nc(Cl)nc43)[C@@H](F)[C@@H]2O1 (stereo partly drawn) [Compound 11, Ethyl (2S)-2-[[(4aR6R,7S,7aR)-6-(6-amino-2-chloro-purin-9-yl)-7-fluoro-2-oxo-4a,6,7,7a-tetrahydro-4H-furo[3.2-d][1,3,2]dioxaphosphinin-2-yl]amino]propanoate] | < 1 | 1 to 10 | < 1 | – | – | – | –
Nc1ccn([C@@H]2O[C@H](COP(=O)(OCc3cnc([N+](=O)[O-])s3)OCc3cnc([N+](=O)[O-])s3)[C@@H](O)[C@@H]2O)c(=O)n1 [Compound 24b, [(2R,3S,4S,5R)-5-(4-amino-2-oxo-pyrimidin-1-yl)-3,4-dihydroxy-tetrahydrofuran-2-yl]methyl bis[(2-nitrothiazol-5-yl)methyl]phosphate] | – | 10 to 25 | – | – | – | < 1 | < 1
Cn1c(COP(=O)(OCc2cnc([N+](=O)[O-])s2)OC[C@H]2O[C@@H](n3ccc(N)nc3=O)[C@@H](O)[C@@H]2O)cnc1[N+](=O)[O-] (stereo partly drawn) [Compound 24c, [(2R,3S,4S,5R)-5-(4-amino-2-oxo-pyrimidin-1-yl)-3,4-dihydroxy-tetrahydrofuran-2-yl]methyl (3-methyl-2-nitro-imidazol-4-yl)methyl (2-nitrothiazol-5-yl)methyl phosphate] | – | 10 to 25 | – | – | – | < 1 | < 1
Nc1ccn([C@@H]2O[C@H](COP(=O)(OCc3ccc([N+](=O)[O-])o3)OCc3ccc([N+](=O)[O-])o3)[C@@H](O)[C@@H]2O)c(=O)n1 [Compound 24e, [(2R,3S,4S,5R)-5-(4-amino-2-oxo-pyrimidin-1-yl)-3,4-dihydroxy-tetrahydrofuran-2-yl]methyl bis[(5-nitro-2-furyl)methyl]phosphate] | – | 10 to 25 | – | – | – | < 1 | < 1

Further lines, with some results ahead:

IC50 (CCRF-CEM) [µM] | IC50 [1] [µM] | IC50 (HL-60) [µM] | IC50 ([1]; 72 h) [µM] | IC50 (HL-60; Homo sapiens, HL-60, 72 h) [µM] | Compound | IC50 (CCRF-CEM; Homo sapiens) [µM] | IC50 (HL-60; Homo sapiens) [µM]
– | – | – | 1 to 10 | < 1 | C[C@H](NP1(=O)OC[C@H]2O[C@@H](n3cnc4c(N)nc(Cl)nc43)[C@@H](F)[C@@H]2O1)C(=O)OCc1ccccc1 (single isomer, unassigned) [Compound 26a] | < 1 | –
< 1 | 1 to 10 | < 1 | – | – | C[C@H](NP1(=O)OC[C@H]2O[C@@H](n3cnc4c(N)nc(Cl)nc43)[C@@H](F)[C@@H]2O1)C(=O)OCc1ccccc1 (single isomer, unassigned) [Compound 26b] | – | –
